Assay results from publication PMC7288171, “Synergistic Effects of Thiosemicarbazides with Clinical Drugs against S. aureus” (Molecules, 2020).
In brackets after ≈: the same amount, converted by molar mass. Where two headings read alike, the source gives them in different places.

Columns and labels:
S. aureus ATCC 25923 [1] = assay: Checkerboard broth dilution synergy assay; type: cell-based
Procedure: The microdilution checkerboard method was used to evaluate the synergistic effects between the thiosemicarbazides 1–9 and antibiotics, which were determined as the fractional inhibitory concentration indices (FICIs). For these experiments, amoxicillin, gentamicin, levofloxacin, linezolid, and vancomycin were selected to represent the five antimicrobial classes most commonly used in clinical practice. In this way, a total of 45 combinations of thiosemicarbazide-amoxicillin, thiosemicarbazide-gentamicin, thiosemicarbazide-levofloxacin, thiosemicarbazide-linezolid, and thiosemicarbazide-vancomycin against S. aureus ATCC 25923 were tested to identify in vitro synergy effects.
Interaction of the thiosemicarbazides 1–9 in combination with amoxicillin, gentamicin, levofloxacin, linezolid or vancomycin against S. aureus ATCC 25923 were analyzed using the checkerboard broth dilution method to determine the fractional inhibitory concentration indices (FICIs), calculated as: FIC = MIC of drug A in combination/MIC of drug A alone + MIC of drug B in combination/MIC of drug B alone. The calculated FICIs were interpreted as synergistic (FIC ≤ 0.5), additive (0.5 < FIC < 1), indifferent (1 ≤ FIC < 4.0), or antagonistic (FIC ≥ 4.0). The checkerboard assay included ciprofloxacin-carvedilol combination as positive control, whereas cefuroxime in combination with 4-(4-bromophenyl)-1-(3-fluorobezoyl)thiosemicarbazide served as negative control. The Z-factor value for the bioassay was 0.683.

MTT cytotoxicity assay = type: cell-based, human; settings: human, Hs27 foreskin fibroblast cells (ATCC CRL-1634), 25 µg/mL, 24 h, vehicle control = 100%
Procedure: (§1) A critical factor in research and development of new antibacterial agents is their abilities to selectively target bacterial cells without toxicity to mammalian cells. Thus, in order to test if antibacterial activity of title thiosemicarbazides is not due to their general toxicity, their effect on mammalian cell viability was assessed using human foreskin fibroblast Hs27 cells (CRL-1634) via MTT assay.
(§2) Cytotoxic properties of the compounds were evaluated using human foreskin fibroblast cells Hs27 (ATCC CRL-1634) (ATCC, Manassas, VA, USA) that were cultured in DMEM-high glucose (Sigma Aldrich, St. Louis, MO, USA). Medium was supplemented with 10% fetal bovine serum (FBS, Sigma Aldrich), 100 U/mL of penicillin, and […] of streptomycin (PenStrep, Sigma Aldrich, St. Louis, MO, USA). Cells were incubated at 37 °C in a humidified atmosphere of 5% CO2. Stock solutions of the tested compounds were prepared dissolving in a sterile dimethyl sulfoxide (DMSO) to the concentration of 50 mg/mL. The cells were seeded into 96-well sterile plates (Nunc) at a cell density of 1 × 10^5 cells/mL. After 24 h of incubation, the medium was removed from each well, and then cells were incubated for the next 24 h with tested compounds (in a fixed dose of 25 µg/mL) in DMEM-high glucose containing 2% FBS. Control cells were cultured only with medium containing 2% addition of FBS. Cytotoxicity of the compounds was evaluated using MTT assay, which is based on the conversion of 3-(4,5-dimethylthiazol-2-yl)-2,5- diphenyltetrazolium bromide (MTT) into dark-blue formazan crystals. Briefly, after 24-h incubation of cells with varying concentrations of the tested compounds, culture medium was removed from the plates. Cells were washed with PBS, and then 100 µL of medium containing 10% MTT solution (5 mg/mL) was added to each well. Cells were incubated for the next 3 h at 37 °C in an atmosphere of 5% CO2. Next, 100 µL (per well) of 10% sodium dodecyl sulfate (SDS) buffer solution was added to dissolve formazan crystals and after an overnight incubation the absorbance was measured at 570 nm using a microplate reader (Epoch, BioTek Instruments, Inc., Winooski, VT, USA).

[2] = system: human foreskin fibroblast Hs27 cells (CRL-1634); assay: MTT cytotoxicity assay; type: cell-based; settings: Homo sapiens, 24 h of treatment
Procedure: as §1, §2

S. aureus DNA gyrase = molecular target: T1, S. aureus DNA gyrase (Staphylococcus aureus, UniProt P0A0K8+P20831); assay: Gyrase supercoiling assay; type: biochemical; settings: read-out: S. aureus Gyrase DNA Inhibition (%) ± SD
T1 construct: purchased Inspiralis, Norwich, UK
Procedure: Supercoiling assay: The assays were performed using S. aureus Gyrase Supercoiling Assay Kits (Inspiralis, Norwich, UK). Briefly, […] pBR322 plasmid DNA (0.5 µg) was incubated with 1 unit of gyrase, in the dedicated supercoiling assay buffer supplied by the manufacturer, in the presence of varying concentrations of the test compounds. Reactions were carried out at 37 °C for 1 h and then terminated by the addition of equal volume of 2 × STOP Buffer (40% sucrose, 100 mM Tris-Cl pH 7.5, 1 mM EDTA, and 0.5 mg/mL bromophenol blue) and chloroform/iso-amyl alcohol. Samples were vortexed, centrifuged, and run through a 15 cm 1% agarose gel in TAE buffer (40 mM Tris-acetate, 2 mM EDTA) for 3 h at 50 V. Gels were stained with ethidium bromide and visualized under UV light.

MRSA-1 = assay: MIC, clinical isolate of S. aureus; type: cell-based; settings: Staphylococcus aureus; clinical isolate MRSA-1; read-out: MIC
Procedure: (§3) The antibacterial activity of the thiosemicarbazides 1–9 and antibiotics (amoxicillin, gentamicin, levofloxacin, linezolid, and vancomycin) was tested on the Gram-positive strains (Microbiologics, St. Cloud, MN, USA) (S. aureus ATCC 25923, S. aureus ATCC 6538, S. epidermidis ATCC 12228, B. subtilis ATCC 6633, B. cereus ATCC 10876, M. luteus ATCC 10240), the Gram-negative strains (Microbiologics, St. Cloud, MN, USA) (E. coli ATCC 25922, K. pneumoniae ATCC 13883, P. mirabilis ATCC 12453, P. aeruginosa ATCC 9027), and clinical isolates of S. aureus (Medical University of Lublin, Lublin, Poland) (MSSA-1, MSSA-2, MSSA-3, MSSA-4, MRSA-1).

MSSA-4 = assay: MIC, clinical isolate of S. aureus; type: cell-based; settings: Staphylococcus aureus; clinical isolate MSSA-4; read-out: MIC
Procedure: as §3

MSSA-3 = assay: MIC, clinical isolate of S. aureus; type: cell-based; settings: Staphylococcus aureus; clinical isolate MSSA-3; read-out: MIC
Procedure: as §3

MSSA-1 = assay: MIC, clinical isolate of S. aureus; type: cell-based; settings: Staphylococcus aureus; clinical isolate MSSA-1; read-out: MIC
Procedure: as §3

MSSA-2 = assay: MIC, clinical isolate of S. aureus; type: cell-based; settings: Staphylococcus aureus; clinical isolate MSSA-2; read-out: MIC
Procedure: as §3

B. cereus ATCC 10876 = assay: MIC, broth microdilution; type: cell-based; settings: Bacillus cereus, ATCC10876; B. c. ATCC 10876; compounds 6–9 and antibiotics; read-out: MIC
Procedure: as §3

S. aureus ATCC 25923 [3] = assay: MIC, broth microdilution; type: cell-based; settings: S. a. ATCC 25923, compounds 6–9 and antibiotics
Procedure: as §3

B. subtilis ATCC 6633 = assay: MIC, broth microdilution; type: cell-based; settings: Bacillus subtilis, ATCC6633; B. s. ATCC 6633; compounds 6–9 and antibiotics; read-out: MIC
Procedure: as §3

S. aureus ATCC 6538 = assay: MIC, broth microdilution; type: cell-based; settings: Staphylococcus aureus, ATCC6538; S. a. ATCC 6538; compounds 6–9 and antibiotics; read-out: MIC
Procedure: as §3

[4] = system: S. epidermidis ATCC 12228; assay: MIC, broth microdilution; type: cell-based; settings: Staphylococcus epidermidis, ATCC12228; S. e. ATCC 12228; compounds 6–9 and antibiotics; read-out: MIC
Procedure: as §3

M. luteus ATCC 10240 = assay: MIC, broth microdilution; type: cell-based; settings: Micrococcus luteus, ATCC10240; M. l. ATCC 10240; compounds 6–9 and antibiotics; read-out: MIC
Procedure: as §3

[5] = molecular target: T2, S. aureus topoisomerase IV (Staphylococcus aureus, UniProt P0C1S7+P0C1U9); assay: Topoisomerase IV decatenation assay; type: biochemical; settings: in words; 50 and 100 µM tested (Figures S1–S3)
T2 construct: purchased Inspiralis, Norwich, UK
Procedure: Inhibition of decatenation activity of S. aureus topoisomerase IV: The assay was performed using S. aureus topoisomerase IV decatenation kits (Inspiralis, Norwich, UK). Interlinked kDNA substrate (0.5 µg) was incubated with 1 unit of topoisomerase IV (Inspiralis, Norwich, UK), in the dedicated decatenation assay buffer supplied by the manufacturer, in the presence of varying concentrations of the test compounds. Reactions were carried out at 37 °C for 1 h and then terminated by the addition of equal volume of 2 × STOP Buffer and chloroform/iso-amyl alcohol. Samples were vortexed, centrifuged, and run through a 15 cm 1% agarose gel in TAE buffer for 1.5 h at 80 V. Gels were stained with ethidium bromide and visualized under UV light.

[6] = Staphylococcus aureus, ATCC25923, read-out: MIC

T2 sequence (P0C1U9 whole entry): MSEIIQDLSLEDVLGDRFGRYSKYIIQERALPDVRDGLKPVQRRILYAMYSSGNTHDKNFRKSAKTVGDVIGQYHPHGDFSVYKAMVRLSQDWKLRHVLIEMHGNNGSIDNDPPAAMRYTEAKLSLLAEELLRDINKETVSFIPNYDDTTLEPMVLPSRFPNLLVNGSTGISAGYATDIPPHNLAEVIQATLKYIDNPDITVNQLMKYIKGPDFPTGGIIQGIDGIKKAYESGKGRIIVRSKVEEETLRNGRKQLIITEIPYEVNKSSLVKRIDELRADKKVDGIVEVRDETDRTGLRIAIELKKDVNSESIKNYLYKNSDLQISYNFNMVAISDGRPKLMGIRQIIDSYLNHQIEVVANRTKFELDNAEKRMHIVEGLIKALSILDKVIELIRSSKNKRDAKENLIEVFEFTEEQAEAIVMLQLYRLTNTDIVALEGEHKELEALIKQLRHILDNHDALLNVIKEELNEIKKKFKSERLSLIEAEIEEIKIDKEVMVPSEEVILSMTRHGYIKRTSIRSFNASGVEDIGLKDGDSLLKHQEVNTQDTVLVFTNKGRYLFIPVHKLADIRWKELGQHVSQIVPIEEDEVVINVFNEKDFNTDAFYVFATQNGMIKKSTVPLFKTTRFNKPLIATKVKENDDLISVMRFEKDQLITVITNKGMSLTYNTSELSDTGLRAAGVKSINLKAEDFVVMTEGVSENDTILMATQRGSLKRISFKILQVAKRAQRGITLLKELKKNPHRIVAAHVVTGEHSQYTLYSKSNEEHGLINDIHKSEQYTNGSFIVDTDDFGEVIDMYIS
T2 sequence (P0C1S7 whole entry): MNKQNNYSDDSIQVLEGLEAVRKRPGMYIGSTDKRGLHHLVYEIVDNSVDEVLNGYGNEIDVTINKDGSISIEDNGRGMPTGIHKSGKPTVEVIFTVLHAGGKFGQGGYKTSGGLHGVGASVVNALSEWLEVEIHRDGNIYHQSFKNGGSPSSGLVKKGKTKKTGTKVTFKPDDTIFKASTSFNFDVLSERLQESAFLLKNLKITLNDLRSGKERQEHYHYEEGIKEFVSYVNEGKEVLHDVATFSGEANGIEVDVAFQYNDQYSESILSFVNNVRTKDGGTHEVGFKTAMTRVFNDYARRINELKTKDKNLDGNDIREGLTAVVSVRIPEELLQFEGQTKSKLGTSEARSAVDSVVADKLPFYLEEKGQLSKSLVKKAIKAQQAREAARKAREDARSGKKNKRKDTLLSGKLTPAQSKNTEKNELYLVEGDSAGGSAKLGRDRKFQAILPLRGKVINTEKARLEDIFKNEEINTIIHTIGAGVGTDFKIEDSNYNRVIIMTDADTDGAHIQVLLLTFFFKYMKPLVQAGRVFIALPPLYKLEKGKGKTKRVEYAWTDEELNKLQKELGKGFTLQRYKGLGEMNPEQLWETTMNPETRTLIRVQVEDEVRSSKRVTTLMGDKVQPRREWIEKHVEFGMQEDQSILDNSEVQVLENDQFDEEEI
T1 sequence (P20831 whole entry): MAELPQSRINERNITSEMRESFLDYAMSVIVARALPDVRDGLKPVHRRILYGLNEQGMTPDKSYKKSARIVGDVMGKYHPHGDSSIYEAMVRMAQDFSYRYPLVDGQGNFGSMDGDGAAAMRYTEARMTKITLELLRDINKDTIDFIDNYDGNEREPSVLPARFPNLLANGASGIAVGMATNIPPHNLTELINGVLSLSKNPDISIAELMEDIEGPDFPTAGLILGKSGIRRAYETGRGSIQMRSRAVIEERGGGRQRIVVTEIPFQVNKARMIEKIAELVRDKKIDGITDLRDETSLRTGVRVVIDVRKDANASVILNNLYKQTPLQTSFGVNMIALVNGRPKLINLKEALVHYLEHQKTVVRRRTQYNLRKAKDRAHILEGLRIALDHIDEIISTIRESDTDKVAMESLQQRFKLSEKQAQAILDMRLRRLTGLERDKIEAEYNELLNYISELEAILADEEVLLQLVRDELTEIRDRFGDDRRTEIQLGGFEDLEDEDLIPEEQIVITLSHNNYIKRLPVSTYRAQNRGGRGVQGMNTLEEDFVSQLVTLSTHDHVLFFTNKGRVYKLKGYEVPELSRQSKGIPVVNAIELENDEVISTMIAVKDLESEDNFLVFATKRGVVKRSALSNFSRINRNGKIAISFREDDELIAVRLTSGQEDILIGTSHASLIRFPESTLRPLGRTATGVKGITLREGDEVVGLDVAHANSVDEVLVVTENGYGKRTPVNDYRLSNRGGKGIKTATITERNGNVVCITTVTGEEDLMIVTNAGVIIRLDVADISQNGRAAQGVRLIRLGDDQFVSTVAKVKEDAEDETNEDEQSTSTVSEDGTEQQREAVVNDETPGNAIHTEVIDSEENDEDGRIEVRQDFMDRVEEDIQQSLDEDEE
T1 sequence (P0A0K8 whole entry): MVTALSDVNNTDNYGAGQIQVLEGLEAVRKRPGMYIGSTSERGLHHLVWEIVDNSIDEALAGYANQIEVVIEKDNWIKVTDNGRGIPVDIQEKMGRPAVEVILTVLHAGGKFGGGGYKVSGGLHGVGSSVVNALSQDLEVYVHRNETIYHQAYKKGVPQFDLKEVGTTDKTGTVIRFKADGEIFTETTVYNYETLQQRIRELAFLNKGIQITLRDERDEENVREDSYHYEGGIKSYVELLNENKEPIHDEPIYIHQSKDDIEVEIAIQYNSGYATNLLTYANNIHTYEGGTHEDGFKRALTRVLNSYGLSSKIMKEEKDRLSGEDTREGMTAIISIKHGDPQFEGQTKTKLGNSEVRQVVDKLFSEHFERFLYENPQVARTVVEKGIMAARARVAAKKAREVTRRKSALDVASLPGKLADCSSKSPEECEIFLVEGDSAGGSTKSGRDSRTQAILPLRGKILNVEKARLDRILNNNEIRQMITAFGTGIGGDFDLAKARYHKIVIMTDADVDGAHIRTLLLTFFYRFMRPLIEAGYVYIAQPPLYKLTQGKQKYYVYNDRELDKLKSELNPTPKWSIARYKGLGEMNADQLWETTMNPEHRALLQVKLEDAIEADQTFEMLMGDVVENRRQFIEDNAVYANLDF

Row | SMILES | interaction in combination (S. aureus ATCC 25923 [1]; combination with amoxicillin) | interaction in combination (S. aureus ATCC 25923 [1]; combination with gentamicin) | interaction in combination (S. aureus ATCC 25923 [1]; combination with levofloxacin) | interaction in combination (S. aureus ATCC 25923 [1]; combination with linezolid) | interaction in combination (S. aureus ATCC 25923 [1]; combination with vancomycin) | viability at 24 h, 25 µg/mL (MTT cytotoxicity assay) [%] | IC50 [2] [µg/mL] | MIC (MRSA-1) [µg/mL] | MIC (MSSA-4) [µg/mL] | MIC (MSSA-3) [µg/mL] | MIC (MSSA-1) [µg/mL] | MIC (MSSA-2) [µg/mL] | MIC (B. cereus ATCC 10876) [µg/mL] | MIC (S. aureus ATCC 25923 [3]) [µg/mL] | MIC (S. aureus ATCC 25923 [3]; [6]) [µg/mL] | MIC (B. subtilis ATCC 6633) [µg/mL] | MIC (S. aureus ATCC 6538) [µg/mL] | MIC [4] [µg/mL] | MIC (M. luteus ATCC 10240) [µg/mL] | melting point [°C] | also measured
1 | O=C(NNC(=S)Nc1cccc(Cl)c1)c1ccccc1F [compound 7, 4-(3-chlorophenyl)-1-(2-fluorobenzoyl)thiosemicarbazide] | additively | no interactions | synergistically | no interactions | antagonistic | 93.2 | > 25 | 500 (≈ 1540 µM) | 125 (≈ 386 µM) | 125 (≈ 386 µM) | 125 (≈ 386 µM) | > 500 | 31.2 (≈ 96.5 µM) | 62.50 (≈ 193 µM) | 62.5 (≈ 193 µM) | 15.6 (≈ 48.3 µM) | 31.2 (≈ 96.5 µM) | 31.2 (≈ 96.5 µM) | 7.82 (≈ 24.2 µM) | 158 to 160 | inhibition at 50 µM (S. aureus DNA gyrase; 50 µM): 23.8 ± 5.02%; inhibition at 100 µM (S. aureus DNA gyrase; 100 µM): 33.1 ± 1.04%
2 | O=C(NNC(=S)Nc1cccc(C(F)(F)F)c1)c1ccccc1F [compound 8, 1-(2-fluorobenzoyl)-4-(3-trifluoromethylphenyl)thiosemicarbazide] | indifferently | indifferently | additively | additively | indifferently | 65.2 | > 25 | > 500 | > 500 | > 500 | 62.5 (≈ 175 µM) | > 500 | 7.82 (≈ 21.9 µM) | – | 15.6 (≈ 43.7 µM) | 7.82 (≈ 21.9 µM) | 15.6 (≈ 43.7 µM) | 7.82 (≈ 21.9 µM) | 7.82 (≈ 21.9 µM) | 176 to 178 | inhibitory action against topoisomerase IV [5]: no inhibitory effects
3 | O=C(NNC(=S)Nc1cccc(Br)c1)c1ccccc1F [compound 9, 4-(3-bromophenyl)-1-(2-fluorobenzoyl)thiosemicarbazide] | indifferently | indifferently | additively | additively | indifferently | 63.1 | > 25 | 125 (≈ 339 µM) | 125 (≈ 339 µM) | > 500 | 62.5 (≈ 170 µM) | > 500 | 15.6 (≈ 42.4 µM) | 62.50 (≈ 170 µM) | 62.5 (≈ 170 µM) | 15.6 (≈ 42.4 µM) | 62.5 (≈ 170 µM) | 31.2 (≈ 84.9 µM) | 7.82 (≈ 21.2 µM) | 166 to 168 | inhibitory action against topoisomerase IV [5]: no inhibitory effects
